Test results: the NIST ThermoML archive (doi:10.1021/je050021e)
Numbers after ± are expanded uncertainties.

Key:
[1] = xn = mol fraction of the nth substance listed; details: Liquid, x2 = 0
[2] = Liquid

O [water] + CC(=O)N1CCOCC1
[1], 101 kPa
Details | mass density [kg/m3] | viscosity [mPa·s]
298.15 K | – | 0.8903 ± 0.029
303.15 K | – | 0.7976 ± 0.026
313.15 K | – | 0.6531 ± 0.022
323.15 K | 988.04 ± 0.53 | 0.547 ± 0.019
333.15 K | 983.12 ± 0.53 | 0.466 ± 0.017
343.15 K | 977.77 ± 0.52 | 0.4049 ± 0.015

O [water] + COCCOCCOCCOC
[1]
Details | mass density, 323.15 K [kg/m3] | mass density, 333.15 K [kg/m3] | mass density, 343.15 K [kg/m3] | viscosity, 303.15 K [mPa·s] | viscosity, 313.15 K [mPa·s] | viscosity, 323.15 K [mPa·s] | viscosity, 333.15 K [mPa·s] | viscosity, 343.15 K [mPa·s]
101 kPa | – | – | – | 0.89 ± 0.022 | 0.6531 ± 0.017 | 0.547 ± 0.015 | 0.466 ± 0.013 | 0.4049 ± 0.011
101.3 kPa | 988.04 ± 0.09 | 983.12 ± 0.09 | 977.77 ± 0.09 | – | – | – | – | –

CC(=O)N1CCOCC1 [4-acetylmorpholine]
[2], 101 kPa
Details | mass density [kg/m3] | viscosity [mPa·s]
298.15 K | 1110.33 ± 0.61 | 8.48 ± 0.23
303.15 K | 1106 ± 0.6 | 7.1 ± 0.2
313.15 K | 1097.35 ± 0.6 | 5.18 ± 0.15
323.15 K | 1088.74 ± 0.59 | 3.96 ± 0.12
333.15 K | 1080.14 ± 0.59 | 3.12 ± 0.1
343.15 K | 1071.55 ± 0.58 | 2.55 ± 0.08

COCCOCCOCCOC [2,5,8,11-tetraoxadodecane]
[2]
Details | mass density, 303.15 K [kg/m3] | mass density, 313.15 K [kg/m3] | mass density, 323.15 K [kg/m3] | mass density, 333.15 K [kg/m3] | mass density, 343.15 K [kg/m3] | viscosity, 303.15 K [mPa·s] | viscosity, 313.15 K [mPa·s] | viscosity, 323.15 K [mPa·s] | viscosity, 333.15 K [mPa·s] | viscosity, 343.15 K [mPa·s]
101 kPa | – | – | – | – | – | 1.77 ± 0.04 | 1.48 ± 0.04 | 1.26 ± 0.03 | 1.08 ± 0.03 | 0.945 ± 0.025
101.3 kPa | 975.86 ± 1 | 966.36 ± 0.99 | 956.85 ± 0.98 | 947.32 ± 0.97 | 937.72 ± 0.96 | – | – | – | – | –
